From US20250049809A1, “INHIBITORS OF MUTANT IDH1 AND IDH2” (Board of Regents, The University of Texas System, priority 2023, published 2025)
Like-named read-outs stand apart in the source and are kept apart here.

Experiments:
[1] = rcm bond, DCE, 60.0 °C
[2] = rcm bond
mIDH1R132H/S280F = mIDH1R132H/S280F (Homo sapiens (Human), UniProt O75874, R132H/S280F); test: mIDH1 R132H/S280F enzymatic activity assay (NADPH fluorescence); assay type: biochemical; conditions: enzyme assay, 1 hour preincubation; read-out: IDH1R132H/S280F IC50
Sequence of mIDH1R132H/S280F (O75874 whole entry R132H/S280F): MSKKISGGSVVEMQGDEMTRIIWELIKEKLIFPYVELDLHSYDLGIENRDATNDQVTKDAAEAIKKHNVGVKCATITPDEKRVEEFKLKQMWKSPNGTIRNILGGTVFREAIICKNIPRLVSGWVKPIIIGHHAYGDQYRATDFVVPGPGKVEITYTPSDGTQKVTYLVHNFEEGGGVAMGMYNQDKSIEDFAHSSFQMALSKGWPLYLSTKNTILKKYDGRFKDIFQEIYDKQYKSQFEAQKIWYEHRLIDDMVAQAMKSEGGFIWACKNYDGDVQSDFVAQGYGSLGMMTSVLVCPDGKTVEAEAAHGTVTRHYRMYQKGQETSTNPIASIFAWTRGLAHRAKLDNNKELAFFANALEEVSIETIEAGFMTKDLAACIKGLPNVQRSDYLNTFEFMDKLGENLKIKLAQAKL
Experimental: (§1) The enzymatic activity of mIDH1R132H/S280F was assessed by measuring the fluorescence of the NADPH. The assay was performed in 384 well, white ProxiPlates (PerkinElmer, 6008280) in assay buffer containing 50 mM Hepes (Life Technologies, 15630080), 50 mM KCl (Teknova, P0327), 10 mM MgCl2 (Sigma-Aldrich, M1028), 1 mM DTT (Sigma-Aldrich, 43815), 0.02% BSA (Sigma-Aldrich, A3059) at pH 7.5. The final reaction volume was 10 μL. Stock solutions of the test compounds were prepared in 100% DMSO (Sigma, D2650) and serially diluted 1:3 using 100% DMSO. 50 nL of compound were then transferred to the assay plate using the Beckman Coulter ECHO 650 Acoustic Liquid Handler for a final DMSO concentration of 0.5%. 5 μL of a mIDH1R132H/S280F and NADPH (Santa Cruz, SC202725C) mixture were added to the assay plate for a final concentration of 2 nM and 10 PM, respectively. 5 μL of NADPH alone were added to negative control wells followed by a 1 hour preincubation at room temperature. 5 μL of alphaketoglutarate (Sigma-Aldrich, K1128) were added to the assay plate for a final concentration of 120 μM. Fluorescence of NADPH (excitation: 350 nm, emission 450 nm) was immediately measured kinetically for approximately 90 minutes using the BioTek Synergy Neo plate reader.

U87 IDH1R132H = U87 IDH1R132H (Homo sapiens (Human), UniProt O75874, R132H); test: U87 IDH1 R132H 2-HG cellular assay; assay type: cell-based; conditions: extracellular 2HG, 24 h treatment, IDH1 mutant-U-87 isogenic cell line
Sequence of U87 IDH1R132H (O75874 whole entry R132H): as the sequence (O75874 whole entry R132H/S280F) above, with F280S counted along it
Experimental: The IDH1 mutant-U-87 isogenic cell line (ATCC HTB-14IG) used to test cellular inhibition is a glioma IDH1R132H mutant isogenic line derived from the parental U-87MG cell line. These cells are maintained in EMEM (ATCC 30-2003) culture media with 10% FBS and 10 U/mL Penicillin-Streptomycin. Twelve thousand cells are plated in polystyrene 384 well cell culture plates (Greiner Bio-One 781091) (12,000 cells/well) approximately 18 hours before compound treatment. Immediately before treatment, the cells are washed twice with PBS, followed by culture media replenishing. Cells are then treated with different concentrations of test compounds (5 μM to 0.3 pM) for 24 h. Extracellular 2HG levels are measured from cell culture media. For analyte extraction, 30 μL of culture media is transferred to 120 uL 100% acetonitrile in a deep 384 well plate and mixed well, followed by 5 min centrifugation at 3700 rpm at room temperature. 100 μL of supernatant is transferred to a flat bottom 384 well plate. Samples are run on the Agilent RapidFire-Mass Spectrometry instrument to detect 2HG levels. The samples from each well were aspirated for 600 ms and loaded onto a HILIC solid-phase extraction cartridge (Agilent) followed by a wash step for 3000 ms with 90% acetonitrile containing 5 mM ammonium acetate. Analytes were then eluted off the cartridge into the Agilent 6460 Triple Quad mass spectrometer with a 4500 ms elution step using 30% acetonitrile containing 5 mM ammonium acetate. The HILIC cartridge was then re-equilibrated by 90% acetonitrile containing 5 mM ammonium acetate for 500 ms. The 2HG was detected by an Agilent 6460 Triple Quad mass spectrometer in negative ion mode. Multiple reaction monitoring was used to quantify 2HG using the precursor ion and product ion at m/z 147.03 and 128.9, respectively. The percent activity of each sample is calculated by using DMSO and control compound treated references, and IC50 values are obtained using the GeneData Screener data analysis program.

TF1 IDH2R140Q = TF1 IDH2R140Q (Homo sapiens (Human), UniProt P48735, R140Q); test: TF1 IDH2 R140Q 2-HG cellular assay; assay type: cell-based; conditions: extracellular 2HG, 24 hr treatment, IDH2 mutant-TF1 isogenic cell line
Sequence of TF1 IDH2R140Q (P48735 40-452 R140Q): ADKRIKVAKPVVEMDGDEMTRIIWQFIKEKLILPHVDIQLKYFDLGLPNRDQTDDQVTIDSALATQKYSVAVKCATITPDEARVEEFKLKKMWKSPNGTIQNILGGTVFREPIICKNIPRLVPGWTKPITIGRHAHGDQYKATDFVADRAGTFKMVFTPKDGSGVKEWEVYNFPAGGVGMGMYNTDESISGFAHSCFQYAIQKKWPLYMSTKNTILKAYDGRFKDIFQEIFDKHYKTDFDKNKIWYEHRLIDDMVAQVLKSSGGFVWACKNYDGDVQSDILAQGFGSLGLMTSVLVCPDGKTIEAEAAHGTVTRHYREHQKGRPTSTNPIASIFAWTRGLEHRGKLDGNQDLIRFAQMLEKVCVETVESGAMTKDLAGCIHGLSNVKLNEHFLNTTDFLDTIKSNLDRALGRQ
Experimental: The IDH2 mutant-TF1 isogenic cell line (ATCC CRL-20031G) used to test cellular inhibition is an erythroblast cell line that was isolated from the marrow of a patient with erythroleukemia with the IDH2R140Q mutation. These cells are maintained in RPMI-1640 (ATCC 30-2001) culture media with 10% FBS, 10 U/mL Penicillin-Streptomycin, and 2 ng/mL GM-CSF. Thirty thousand cells are plated in polystyrene tissue culture treated 384 well cell culture plates (PerkinElmer 6007680) (30,000 cells/well) approximately 2 hours before compound treatment. Cells are then treated with different concentrations of test compounds (5 μM to 0.3 pM) for 24 hr. Extracellular 2HG levels are measured from cell culture media. For analyte extraction, 30 μL of culture media is transferred to 120 μL 100% acetonitrile in a deep 384 well plate and mixed well, followed by 5 min centrifugation at 3700 rpm at room temperature. 100 μL of supernatant is transferred to a flat bottom 384 well plate. Samples are run on the Agilent RapidFire-Mass Spectrometry instrument to detect 2HG levels. The samples from each well were aspirated for 600 ms and loaded onto a HILIC solid-phase extraction cartridge (Agilent) followed by a wash step for 3000 ms with 90% acetonitrile containing 5 mM ammonium acetate. Analytes were then eluted off the cartridge into the Agilent 6460 Triple Quad mass spectrometer with a 4500 ms elution step using 30% acetonitrile containing 5 mM ammonium acetate. The HILIC cartridge was then re-equilibrated by 90% acetonitrile containing 5 mM ammonium acetate for 500 ms. The 2HG was detected by an Agilent 6460 Triple Quad mass spectrometer in negative ion mode. Multiple reaction monitoring was used to quantify 2HG using the precursor ion and product ion at m/z 147.03 and 128.9, respectively. The percent activity of each sample is calculated by using DMSO and control compound treated references, and IC50 values are obtained using the GeneData Screener data analysis program.

mIDH2R140Q = mIDH2R140Q (Homo sapiens (Human), UniProt P48735, R140Q); test: mIDH2 R140Q enzymatic activity assay (NADPH fluorescence); assay type: biochemical; conditions: enzyme assay, 1 hour preincubation; read-out: IDH2R140Q IC50
Sequence of mIDH2R140Q (P48735 40-452 R140Q): as above
Experimental: as §1, with “of mIDH2R140Q” for “of mIDH1R132H/S280F”, “a mIDH2R140Q” for “a mIDH1R132H/S280F”, “of 3” for “of 2”, “10 μM,” for “10 PM,”, “of 300” for “of 120”, “approximately 150” for “approximately 90”

## C[C@@H]1Nc2ncc3c(n2)N(C(=O)OC3)[C@@H](C)CC=CCOCC(N2CCN(C(=O)OC(C)(C)C)CC2)c2ccc1cc2 (stereo partly drawn)
[1]; from C=CCOCC(c1ccc([C@H](C)Nc2ncc3c(n2)N([C@@H](C)CC=C)C(=O)OC3)cc1)N1CCN(C(=O)OC(C)(C)C)CC1, 18-membered ring, Hoveyda-Grubbs II (0.1 eq), 8.24 mM, 9.0 h
  ring closure, yield after HPLC: 27.6%

## C[C@@H]1Nc2ncc3c(n2)N(CC=CCCCC(=O)c2ccc1cc2)C(=O)OC3
[2]; from C=CCCCC(=O)c1ccc([C@H](C)Nc2ncc3c(n2)N(CC=C)C(=O)OC3)cc1, 17-membered ring, Grubbs II (2 portions), DCM, 2.04 mM, 40.0 °C, 84.0 h
  ring closure, isolated yield: 52%

## C[C@@H]1Nc2ncc3c(n2)N(CC=CCCCC(N2CCN(C(=O)OC(C)(C)C)CC2)c2ccc1cc2)C(=O)OC3 (stereo partly drawn)
[1]; from C=CCCCC(c1ccc([C@H](C)Nc2ncc3c(n2)N(CC=C)C(=O)OC3)cc1)N1CCN(C(=O)OC(C)(C)C)CC1, 17-membered ring, Hoveyda-Grubbs II (2 x 0.1 eq), 8.67 mM, 15.0 h
  ring closure, yield after HPLC: 21%

## C[C@@H]1Nc2ncc3c(n2)N(CC=CCCCCC(=O)c2ccc1cc2)C(=O)OC3
[2]; from C=CCCCCC(=O)c1ccc([C@H](C)Nc2ncc3c(n2)N(CC=C)C(=O)OC3)cc1, 18-membered ring, Grubbs II (0.1 eq), DCM, 2.6 mM, 45.0 °C, 48.0 h
  ring closure, isolated yield: 36.5%

## C[C@@H]1Nc2ncc3c(n2)N(CCCCC=CCCC(N2CCN(C(=O)OC(C)(C)C)CC2)c2ccc1cc2)C(=O)OC3 (stereo partly drawn)
[2]; from C=CCCCCN1C(=O)OCc2cnc(N[C@@H](C)c3ccc(C(CCC=C)N4CCN(C(=O)OC(C)(C)C)CC4)cc3)nc21, 19-membered ring, Hoveyda-Grubbs II (0.21 eq), DCE, 16.6 mM, 60.0 °C, 9.0 h
  ring closure, isolated yield: 49.2%

## C=CC(=O)N1CCN(C2CCCCCCN3C(=O)OCc4cnc(nc43)N[C@@H](C)c3ccc2cc3)CC1 (single isomer, unassigned) [Example 7]
mIDH1R132H/S280F
  IC50: 295 nM
U87 IDH1R132H
  IC50: 0.24 nM
TF1 IDH2R140Q
  IC50: 123 nM
mIDH2R140Q
  IC50: 1730 nM

## C=CC(=O)N1CCN(C2CCCCCCN3C(=O)OCc4cnc(nc43)N[C@@H](C)c3ccc2cc3)CC1 (single isomer, unassigned) [Example 8]
mIDH1R132H/S280F
  IC50: 922 nM
U87 IDH1R132H
  IC50: 0.19 nM
TF1 IDH2R140Q
  IC50: 351 nM
mIDH2R140Q
  IC50: 4730 nM

## C=CC(=O)N1CCN(C2CCCCCCCCN3C(=O)OCc4cnc(nc43)N[C@@H](C)c3ccc2cc3)CC1 (stereo partly drawn) [Example 1, (3S)-5-(4-acryloylpiperazin-1-yl)-3-methyl-1^1,1^4-dihydro-1^2H-2-aza-1(7,1)-pyrimido[4,5-d][1,3]oxazina-4(1,4)-benzenacyclotridecaphan-1^2-one]
mIDH1R132H/S280F
  IC50: 103 nM
U87 IDH1R132H
  IC50: 0.32 nM
TF1 IDH2R140Q
  IC50: 269 nM
mIDH2R140Q
  IC50: 1320 nM

## C=CC(=O)N1CCN(C2CC/C=C\CCCCN3C(=O)OCc4cnc(nc43)N[C@@H](C)c3ccc2cc3)CC1 (stereo partly drawn) [Example 2, (3S,Z)-5-(4-acryloylpiperazin-1-yl)-3-methyl-1^1,1^4-dihydro-1^2H-2-aza-1(7,1)-pyrimido[4,5-d][1,3]oxazina-4(1,4)-benzenacyclotridecaphan-8-en-1^2-one]
mIDH1R132H/S280F
  IC50: 284 nM
U87 IDH1R132H
  IC50: 0.31 nM
TF1 IDH2R140Q
  IC50: 342 nM
mIDH2R140Q
  IC50: 1840 nM

## C=CC(=O)N1CCN(C2CCCC/C=C/CCN3C(=O)OCc4cnc(nc43)N[C@@H](C)c3ccc2cc3)CC1 (stereo partly drawn) [Example 5, (3S,E)-5-(4-acryloylpiperazin-1-yl)-3-methyl-1^1,1^4-dihydro-1^2H-2-aza-1(7,1)-pyrimido[4,5-d][1,3]oxazina-4(1,4)-benzenacyclotridecaphan-10-en-12-one]
U87 IDH1R132H
  IC50: 0.1 nM
TF1 IDH2R140Q
  IC50: 215 nM

## C=CC(=O)N1CCN(C2CCC/C=C/CN3C(=O)OCc4cnc(nc43)N[C@@H](C)c3ccc2cc3)CC1 (stereo partly drawn) [Example 6, (3S,Z)-5-(4-acryloylpiperazin-1-yl)-3-methyl-1^1,1^4-dihydro-1^2H-2-aza-1(7,1)-pyrimido[4,5-d][1,3]oxazina-4(1,4)-benzenacycloundecaphan-9-en-1^2-one]
U87 IDH1R132H
  IC50: 0.26 nM
TF1 IDH2R140Q
  IC50: 1720 nM

## C=CC(=O)N1CCN(C2CCCCCC[C@H](C)N3C(=O)OCc4cnc(nc43)N[C@@H](C)c3ccc2cc3)CC1 (stereo partly drawn) [Example 9, (3S,12S)-5-(4-acryloylpiperazin-1-yl)-3,12-dimethyl-1^1,1^4-dihydro-1^2H-2-aza-1(7,1)-pyrimido[4,5-d][1,3]oxazina-4(1,4)-benzenacyclododecaphan-1^2-one]
mIDH1R132H/S280F
  IC50: 94 nM
U87 IDH1R132H
  IC50: 0.14 nM
TF1 IDH2R140Q
  IC50: 504 nM
mIDH2R140Q
  IC50: 1490 nM

## C=CC(=O)N1CCN(C2COCCCC[C@H](C)N3C(=O)OCc4cnc(nc43)N[C@@H](C)c3ccc2cc3)CC1 (stereo partly drawn) [Example 10, (3S,12S)-5-(4-acryloylpiperazin-1-yl)-3,12-dimethyl-1^1,1^4-dihydro-1^2H-7-oxa-2-aza-1(7,1)-pyrimido[4,5-d][1,3]oxazina-4(1,4)-benzenacyclododecaphan-1^2-one]
mIDH1R132H/S280F
  IC50: 83 nM
U87 IDH1R132H
  IC50: 0.31 nM
TF1 IDH2R140Q
  IC50: 1220 nM
mIDH2R140Q
  IC50: 4990 nM
